Data set [1] deals with conditioned avoidance response. Briefly: Activity of reducing the conditioned avoidance response, shuttle box (Experiment II a). The class given is in vivo, rat (male, Wister). As to conditions: sc, read-out: ED50, activity of reducing the conditioned avoidance response. As for the experimental part:
(a) Activity of reducing the conditioned avoidance response:
By a shuttle box method using rats (male, Wister, about 300 g.), a test sample was administered subcutaneously to the rats, after 30 minutes, a conditioned stimulation (buzzer noise for at longest 5 seconds) was applied, and then the avoidance response was observed. Then, from the relation of the ratio of inhibition of avoidance response and the amount of the test sample used, ED50 was determined. In addition, the training of applying an electric stimulation (A.C. 40 volts) as an unconditioned stimulation from a grid on a floor for at longest 5 seconds was applied to rats at 20 times/day for 6 days and the rats showing the ratio of avoidance response of higher than 80% were used in the experiment.

In data set [2] the test system is apomorphine-induced stereotyped behavior. In words: Activity of reducing the apomorphine-induced stereotyped behavior (Experiment I). The class given is in vivo, rat (male, Wistar). As to conditions: sc, read-out: ED50, activity of reducing apomorphine-induced stereotyped behavior.
Data set [3] can be described thus: Cataleptogenic activity (Experiment III a). The note with it: in vivo, sc; mouse, 30 min, fore-limbs hung on horizontal rod for 30 second. Details: species or system mouse (male, ICR). As for the experimental part: (a) Cataleptogenic activity:
By referring to the method by Curvoisier et al (Psychotropic drugs, 373(1957)), a test sample was subcutaneously administered to mice (male, ICR, 8 weeks age) and after 30 minutes since then, the both fore-limb was forcibly hung on a horizontal metallic rod of 2 mm. diameter placed at a height of 6 cm. and when the mouse was kept in that state for 30 second, the activity of the mouse was considered to be a positive cataleptogenic activity. From the relation of the ratio of inhibition and the amount of the test sample used, ED50 was determined.

The nature of data set [4]: Acute toxicity, up-down method (Experiment III b). As to conditions: in vivo, iv, mouse. The protocol:
A test sample was administered to mice (male, ICR, 8 week age) by an intravenous injection and then LD50 was determined by an up-down method.

The subject of data set [5] is methamphetamin-induced stereotyped behavior. In words: Activity of reducing the methamphetamin-induced stereotyped behavior (Experiment II b). The note with it: sc, read-out: ED50, activity of reducing the methamphetamin-induced stereotyped behavior. The format is in vivo, rat (male, Wister). As for the experimental part: (b). Activity of reducing the methamphetamin-induced stereotyped behavior:
A test sample was administered subcutaneously to the rats, after 30 minutes, 5 mg./kg. of methamphetamine was administered intraperitoneally, and then after 60 minutes and 90 minutes since then, the symptom of the methamphetamin-induced stereotyped behavior was observed. From the relation of the ratio of inhibition and the amount of the test sample used, ED50 was determined.

The conditions of data set [6]: according to the Dutch patent; cited from earlier work.
[7] abbreviates: rat, s.c., 30 min before conditioned stimulation, shuttle box.
[8] abbreviates: rat, s.c., 30 min before 1.25 mg/Kg apomorphine i.v., observed after 5, 10, 20 min.
Setting [9] is: rat, s.c., 30 min before 5 mg./kg. methamphetamine i.p., observed after 60 and 90 min.

Structures can show the parent of a compound that is named as a salt. Where two headings read alike, the source gives them in different places.

One may read the ED50 as the midpoint of the dose-response relation. Usually LD50 stands for the dose expected to kill half of the subjects tested. Low values mean a more toxic substance, high ones a less toxic substance. As to `COc1cc(N)c(Cl)cc1C(=O)NCCN(C)Cc1ccccc1` [N-[2-(N'-benzyl-N'-methylamino)ethyl]-4-amino-5-chloro-2-methoxybenzamide], the results for the ED50 in data set [1] (setting [7]), in data set [2] (setting [8]) and in data set [5] (setting [9]) were 0.2 mg/kg, 0.54 mg/kg and 3 mg/kg, respectively. Moreover, in data set [3], it took a dose of 60 mg/kg to reach the 50% effect level (ED50 at 0.5 h). Besides, the LD50 in data set [4] is 48 mg/kg.

On to `CCN(CCNC(=O)c1cc(Cl)c(N)cc1OC)Cc1ccc(OC)cc1` [N-[2-(N'-p-methoxyphenylmethyl-N'-ethylamino)ethyl]-4-amino-5-chloro-2-methoxybenzamide], for which, in data set [2] (setting [8]), the ED50 came to 0.3 mg/kg.

Regarding `COc1cc(C(=O)NCCN(C)Cc2ccccc2)cc(OC)c1OC` [N-[2-(N'-benzyl-N'-methylamino)ethyl]-3,4,5-trimethoxybenzamide, reference compound], the ED50 in data set [2] (setting [8]) was > 30 mg/kg.

`COc1cc(N)c(Cl)cc1C(=O)NCC1CCC(C)N1Cc1ccccc1` (stereo not drawn) [N-(1-benzyl-5-methyl-2-pyrrolidinylmethyl)-4-amino-5-chloro-2-methoxybenzamide]: the ED50 in data set [1] (setting [7]) was 0.18 mg/kg; in data set [2] (setting [8]), 0.18 mg/kg; in data set [5] (setting [9]), 1 mg/kg. This compound also registered an ED50 at 0.5 h in data set [3] of 30 mg/kg. This compound came in with an LD50 in data set [4] of 49 mg/kg.

In the case of `COc1cc(N)c(Cl)cc1C(=O)NC1CCN(Cc2ccc(Cl)cc2)C1` (stereo not drawn) [N-(1-p-chlorophenylmethyl-3-pyrrolidinyl)-4-amino-5-chloro-2-methoxybenzamide], the ED50 in data set [1] (setting [7]) is 0.1 mg/kg; in data set [2] (setting [8]), 0.18 mg/kg.

For `CCN1CCCC1CNC(=O)c1cc(S(N)(=O)=O)ccc1OC` (stereo not drawn) [Sulpiride, reference compound], the ED50 in data set [2] (setting [8]) is > 100 mg/kg.

As for `CCS(=O)(=O)c1ccc(OC)c(C(=O)NCC2CCC(C)N2Cc2ccccc2)c1.Cl` (stereo not drawn) [N-(1-benzyl-5-methyl-2-pyrrolidinylmethyl)-5-ethylsulfonyl-2-methoxybenzamide hydrochloride], the ED50 in data set [1] (setting [7]) amounted to 0.3 mg/kg; in data set [2] (setting [8]) it was 0.3 mg/kg; in data set [5] (setting [9]) it was 1.8 mg/kg.

`CCN(CCNC(=O)c1cc(Cl)c(N)cc1OC)Cc1ccc(F)cc1` [N-[2-(N'-ethyl-N'-p-fluorophenylmethylamino)ethyl]-4-amino-5-chloro-2-methoxybenzamide]: in data set [2] (setting [8]), the ED50 worked out at 0.18 mg/kg.

For the compound `COc1cc(C(=O)NC2CCN(Cc3ccccc3)C2)cc(OC)c1OC` (stereo not drawn) [N-(1-benzyl-3-pyrrolidinyl)-3,4,5-trimethoxybenzamide, reference compound], the 50% effective dose (ED50) in data set [2] (setting [8]) was > 10 mg/kg.

On to `CCN(CCNC(=O)c1cc(Cl)c(N)cc1OC)Cc1cccc(Cl)c1` [N-[2-(N'-m-chlorophenylmethyl-N'-ethylamino)ethyl]-4-amino-5-chloro-2-methoxybenzamide], for which the values for the ED50 in data set [2] (setting [8]) and in data set [5] (setting [9]) were 0.3 mg/kg and 1 mg/kg, respectively.

For the compound `CCN(CCNC(=O)c1cc(Cl)c(N)cc1OC)Cc1ccc(Cl)cc1` [N-[2-(N'-p-chlorophenylmethyl-N'-ethylamino)ethyl]-4-amino-5-chloro-2-methoxybenzamide], the ED50 in data set [1] (setting [7]) was 0.1 mg/kg; in data set [2] (setting [8]), 0.18 mg/kg; in data set [5] (setting [9]), 1 mg/kg.

Take `COc1cc(N)c(Cl)cc1C(=O)NC1CCN(Cc2ccccc2)C1` (stereo not drawn) [N-(1-benzyl-3-pyrrolidinyl)-4-amino-5-chloro-2-methoxybenzamide]: the ED50 in data set [1] (setting [7]) was found to be 0.3 mg/kg; in data set [2] (setting [8]), 0.22 mg/kg; in data set [5] (setting [9]), 0.72 mg/kg.

On to `CCN(CCNC(=O)c1cc(S(=O)(=O)CC)ccc1OC)Cc1ccc(Cl)cc1` [N-[2-(N'-p-chlorophenylmethyl-N'-ethylamino)ethyl]-3-ethylsulfonyl-6-methoxybenzamide hydrochloride], for which the ED50 in data set [2] (setting [8]) was found to be 0.47 mg/kg; in data set [5] (setting [9]) it was 3 mg/kg.

As for `CN(C)CCCN1c2ccccc2Sc2ccc(Cl)cc21` [Chlorpromazine, reference compound], the ED50 was determined as 0.8 mg/kg in data set [1] (Rattus norvegicus), 2.5 mg/kg in data set [2] (Rattus norvegicus) and 3 mg/kg in data set [5] (Rattus norvegicus). Moreover, it took a dose of 10 mg/kg to reach the 50% effect level in data set [3] (ED50 at 0.5 h). The same compound yielded an LD50 in data set [4] of 59 mg/kg.

For the compound `CCN(CCNC(=O)c1cc(Cl)c(N)cc1OC)Cc1ccccc1` [N-[2-(N'-benzyl-N'-ethylamino)ethyl]-4-amino-5-chloro-2-methoxybenzamide], the median effective dose (ED50) in data set [1] (setting [7]) came to 0.1 mg/kg; in data set [2] (setting [8]) it was 0.2 mg/kg; in data set [5] (setting [9]), 1.8 mg/kg.

In the case of `CCN(CC)CCNC(=O)c1cc(Cl)c(N)cc1OC` [Metoclopramide, reference compound], the ED50 in data set [2] (setting [8]) was 4.1 mg/kg.

Regarding `CCN1CCCC1CNC(=O)c1cc(S(=O)(=O)CC)ccc1OC` (stereo not drawn) [Sultopiride, reference compound], the ED50 in data set [2] (setting [8]) came to 18 mg/kg.

For `COc1cc(N)c(Cl)cc1C(=O)NC1CCN(C2CCCCC2)C1` (stereo not drawn) [N-(1-cyclohexyl-3-pyrrolidinyl)-4-amino-5-chloro-2-methoxybenzamide, reference compound], the ED50 in data set [2] (setting [8]) is 1.8 mg/kg. In addition, the “antiemetic activity (in words)” value in data set [6] is “strongest antiemetic activity”.
